# pIC50: −log10 of the molar value.
# Target: CK2A1 (CK2α/β) (Homo sapiens, UniProt P68400)
# Test: CK2 kinase assay, CK2A1 (CK2α/β)
# Assay type: biochemical
# Conditions: Table A; read-out: CK2A1 (CK2α/β) (IC50)
# Chain of CK2A1 (CK2α/β) (P68400 whole entry, species assumed): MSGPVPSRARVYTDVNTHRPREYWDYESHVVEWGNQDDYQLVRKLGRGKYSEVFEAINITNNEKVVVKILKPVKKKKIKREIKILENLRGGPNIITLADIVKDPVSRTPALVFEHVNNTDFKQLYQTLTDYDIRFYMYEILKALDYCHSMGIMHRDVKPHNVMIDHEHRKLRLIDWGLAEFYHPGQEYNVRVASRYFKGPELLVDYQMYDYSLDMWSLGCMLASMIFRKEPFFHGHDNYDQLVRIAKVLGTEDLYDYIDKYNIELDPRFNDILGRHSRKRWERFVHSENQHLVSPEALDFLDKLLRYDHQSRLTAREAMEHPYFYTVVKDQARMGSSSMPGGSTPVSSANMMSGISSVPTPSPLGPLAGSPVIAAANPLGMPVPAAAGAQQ
# Chain of CK2A1 (CK2α/β) (P67870 whole entry partner, species assumed): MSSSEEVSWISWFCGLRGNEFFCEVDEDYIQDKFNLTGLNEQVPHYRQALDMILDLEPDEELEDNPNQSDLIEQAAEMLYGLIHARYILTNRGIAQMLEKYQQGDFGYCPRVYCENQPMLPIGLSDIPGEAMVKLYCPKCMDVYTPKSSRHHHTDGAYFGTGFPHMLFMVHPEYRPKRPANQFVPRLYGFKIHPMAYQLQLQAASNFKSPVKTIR
row,pIC50,Structure (SMILES)
1,9.18,"COC(=O)N[C@@H]1CN(c2cc(C#N)cc(Nc3nc(NC4CC4)c4ncc(C#N)n4n3)c2Cl)C[C@H]1O (racemic) [Example 9, (+/−) methyl ((3R,4R)-1-(2-chloro-5-cyano-3-((7-cyano-4-(cyclopropylamino)imidazo [2,1-f][1,2,4]triazin-2-yl)amino)phenyl)-4-hydroxy-3-pyrrolidinyl)carbamate]"
2,9.29,"CC(=O)N[C@@H]1CN(c2cc(C#N)cc(Nc3nc(NC4CC4)c4ncc(C#N)n4n3)c2Cl)C[C@H]1O (racemic) [Example 10, (+/−) N-((3R,4R)-1-(2-chloro-5-cyano-3-((7-cyano-4-(cyclopropylamino)imidazo [2,1-f][1,2,4]triazin-2-yl)amino)phenyl)-4-hydroxy-3-pyrrolidinyl)acetamide]"
3,9.17,"COC(=O)N[C@@H]1CN(c2cc(C#N)cc(Nc3nc(NC4CC4)c4ncc(C#N)n4n3)c2Cl)C[C@@H]1C (racemic) [Example 11, (+/−) methyl ((3S,4S)-1-(2-chloro-5-cyano-3-((7-cyano-4-(cyclopropylamino)imidazo [2,1-f][1,2,4]triazin-2-yl)amino)phenyl)-4-methyl-3-pyrrolidinyl)carbamate]"
4,9.23,"COC(=O)N[C@H]1C[C@H](O)CN(c2cc(C#N)cc(Nc3nc(NC4CC4)c4ncc(C#N)n4n3)c2Cl)C1 (racemic) [Example 17, (+/−) methyl ((3S,5S)-1-(2-chloro-5-cyano-3-((7-cyano-4-(cyclopropylamino)imidazo [2,1-f][1,2,4]triazin-2-yl)amino)phenyl)-5-hydroxy-3-piperidinyl)carbamate]"
5,8.90,"C[C@@H]1CN(c2cc(C#N)cc(Nc3nc(NC4CC4)c4ncc(C#N)n4n3)c2Cl)C[C@@H]1O (racemic) [Example 19, (+/−) 2-((2-chloro-5-cyano-3-((3R,4R)-3-hydroxy-4-methyl-1-pyrrolidinyl)phenyl)amino)-4-(cyclopropylamino)imidazo [2,1-f][1,2,4]triazine-7-carbonitrile]"
6,8.31,"C[C@@H]1CN(c2cc(C#N)cc(Nc3nc(NC4CC4)c4ncc(C#N)n4n3)c2Cl)C[C@H]1O (racemic) [Example 20, (+/−) 2-((2-chloro-5-cyano-3-((3S,4R)-3-hydroxy-4-methyl-1-pyrrolidinyl)phenyl)amino)-4-(cyclopropylamino)imidazo [2,1-f][1,2,4]triazine-7-carbonitrile]"
7,8.94,"COC(=O)N[C@@H]1CN(c2cc(C#N)cc(Nc3nc(NC4CC4)c4ncc(C#N)n4n3)c2Cl)C[C@H]1C (racemic) [Example 21, (+/−) methyl ((3S,4R)-1-(2-chloro-5-cyano-3-((7-cyano-4-(cyclopropylamino)imidazo [2,1-f][1,2,4]triazin-2-yl)amino)phenyl)-4-methyl-3-pyrrolidinyl)carbamate]"
8,9.31,"CN1CCCC12CCN(c1cc(C#N)cc(Nc3nc(NC4CC4)c4ncc(C#N)n4n3)c1Cl)C2 (racemic) [Example 25, (+/−) 2-((2-chloro-5-cyano-3-(1-methyl-1,7-diazaspiro[4.4]non-7-yl)phenyl)amino)-4-(cyclopropylamino)imidazo [2,1-f][1,2,4]triazine-7-carbonitrile]"
9,8.99,"CN1CCC2(CC1)CCN(c1cc(C#N)cc(Nc3nc(NC4CC4)c4ncc(C#N)n4n3)c1Cl)C2 (racemic) [Example 26, (+/−) 2-((2-chloro-5-cyano-3-(8-methyl-2,8-diazaspiro[4.5]dec-2-yl)phenyl)amino)-4-(cyclopropylamino)imidazo [2,1-f][1,2,4]triazine-7-carbonitrile]"
10,9.06,"CN1CCC2(CCN(c3cc(C#N)cc(Nc4nc(NC5CC5)c5ncc(C#N)n5n4)c3Cl)CC2)C1 (racemic) [Example 27, (+/−) 2-((2-chloro-5-cyano-3-(2-methyl-2,8-diazaspiro[4.5]dec-8-yl)phenyl)amino)-4-(cyclopropylamino)imidazo [2,1-f][1,2,4]triazine-7-carbonitrile]"
